Reference: article PMC10913048, “Snapshots of the Reaction Coordinate of a Thermophilic 2′-Deoxyribonucleoside/ribonucleoside Transferase” (ACS Catalysis, 2024)

Experiments:
[1] = target: T1, CtNDT (2′-deoxyribonucleoside/ribonucleoside transferase, dNDT) (Chroococcidiopsis thermalis, UniProt K9TVX3, E88A); assay: stopped-flow tryptophan fluorescence; kon […] ^–[…] s^–[…], koff […] s^–[…]; assay type: binding; conditions: read-out: stopped-flow tryptophan fluorescence; kon 0.76 μM^-1 s^-1, koff 39.3 s^-1
T1 construct: gene Chro_1188

[2] = target: T2, CtNDT (2′-deoxyribonucleoside/ribonucleoside transferase, dNDT) (Chroococcidiopsis thermalis, UniProt K9TVX3); assay: stopped-flow fluorescence ([…]′-deoxyribosylation […] s^–[…]); HPLC steady-state kinetics (kcat/KM); assay type: binding
T2 construct: gene Chro_1188
T2 sequence (K9TVX3 1-155): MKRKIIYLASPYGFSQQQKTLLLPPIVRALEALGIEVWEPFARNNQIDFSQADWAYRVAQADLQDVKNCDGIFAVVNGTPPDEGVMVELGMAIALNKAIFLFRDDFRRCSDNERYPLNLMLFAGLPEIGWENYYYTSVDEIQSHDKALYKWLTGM

[3] = target: T2, CtNDT (2′-deoxyribonucleoside/ribonucleoside transferase, dNDT); assay: HPLC steady-state transglycosylation kinetics (kcat); assay type: biochemical
[4] = target: T2, CtNDT (2′-deoxyribonucleoside/ribonucleoside transferase, dNDT); assay: ITC; co-crystal structure; assay type: binding
[5] = target: T2, CtNDT (2′-deoxyribonucleoside/ribonucleoside transferase, dNDT); assay: crystal structure of the covalent 2-difluoro-2-deoxyribosyl enzyme after cocrystallization; assay type: binding
[6] = target: T3, CtNDT (2′-deoxyribonucleoside/ribonucleoside transferase, dNDT) (Chroococcidiopsis thermalis, UniProt K9TVX3, D62N); assay: co-crystal structure; assay type: binding
T3 construct: gene Chro_1188

[7] = target: T2, CtNDT (2′-deoxyribonucleoside/ribonucleoside transferase, dNDT); assay: ITC; stopped-flow fluorescence; assay type: binding
[8] = target: Chroococcidiopsis thermalis nucleoside 2'-deoxyribosyltransferase (CtNDT), wild type (Chroococcidiopsis thermalis PCC 7203) (UniProt K9TVX3); assay: SEC; size exclusion of purified CtNDT in solution (Figure S1); conditions not shown
[9] = substrate: Nc1ncnc2c1ncn2[C@@H]1O[C@H](CO)[C@@H](O)[C@H]1O; assay: crystal structure of ribosylated enzyme after cocrystallization; HPLC steady-state kinetics (KM); assay type: biochemical, Chroococcidiopsis thermalis; conditions: ribosyl covalent on catalytic glutamate E88; D62 near […]′-OH and […]′-OH
Text: crystal structure of ribosylated enzyme after cocrystallization; HPLC steady-state kinetics (KM) on CtNDT (2′-deoxyribonucleoside/ribonucleoside transferase, dNDT) | determined the structure of a ribosylated enzyme intermediate by cocrystallization of wild-type CtNDT in the presence of Ado

With Nc1ncnc2c1ncn2[C@H]1C[C@H](O)[C@@H](CO)O1 [2′-deoxyadenosine] the koff [1] was 39.3 ± 0.7 s⁻¹ and the “stopped-flow fluorescence (2′-deoxyribosylation 532 s^-1); HPLC steady-state kin” value [2] was 50.5 ± 12.2 mM^–1 s^–1.

For Nc1nc2c(ncn2[C@H]2C[C@H](O)[C@@H](CO)O2)c(=O)[nH]1 [2′-deoxyguanosine], the “HPLC steady-state transglycosylation kinetics (kcat)” value [3] was 6.9 ± 0.7 s^–1.

Molecule O=c1[nH]cnc2c(CN3C[C@H](CO)[C@@H](O)C3)c[nH]c12 [DADme–immucillin-H] has a Kd [4] of 9 ± 5 nM.

For Nc1ccn([C@@H]2O[C@H](CO)[C@@H](O)C2(F)F)c(=O)n1 [Gemcitabine], the “crystal structure of the covalent 2-difluoro-2-deoxyribosyl enzyme after cocryst” value [5] was “structure of a 2-difluoro-2-deoxy-ribosylated CtNDT after cocrystallization with Gemcitabine”.

In the case of O=c1[nH]cnc2c([C@@H]3N[C@H](CO)[C@@H](O)[C@H]3O)c[nH]c12 [immucillin-H], the co-crystal structure [6] is reported as “(b) CtNDTD62N bound to immucillin-H” and the Kd [7] is reported as 78.2 ± 6.6 µM.

In the case of “Chroococcidiopsis thermalis nucleoside 2'-deoxyribosyltransferase (CtNDT), wild type (from UniProt K9TVX3 1-155) (enzyme)”, the stoichiometry N [8] is reported as 4.

B1: CtNDT (2′-deoxyribonucleoside/ribonucleoside transferase, dNDT) (Chroococcidiopsis thermalis PCC 7203) (protein)
chain: MKRKIIYLASPYGFSQQQKTLLLPPIVRALEALGIEVWEPFARNNQIDFSQADWAYRVAQADLQDVKNCDGIFAVVNGTPPDEGVMVELGMAIALNKAIFLFRDDFRRCSDNERYPLNLMLFAGLPEIGWENYYYTSVDEIQSHDKALYKWLTGM
With B1 the Km [9] was 0.25 ± 0.05 mM.
